Source: US8115015B2 (Cadila Healthcare Limited, priority 2009, dated 2012)

Test: Stability of Atorvastatin Calcium Amorphous (related substances by HPLC on storage)
Assay type: physicochemical
[1] = 25° ± 2° C./RH 60 ± 5%, 1 Month
[2] = 25° ± 2° C./RH 60 ± 5%, 2 Months
[3] = 25° ± 2° C./RH 60 ± 5%, 3 months
[4] = 25° ± 2° C./RH 60 ± 5%, 6 Months
[5] = 25° ± 2° C./RH 60 ± 5%, 6 Months, listed as stable amorphous atrovastatin calcium
[6] = 25°±2° C./RH 60±5% for 6 months
[7] = Cold (5° C.) 2° to 8° C., 1 Month
[8] = Cold (5° C.) 2° to 8° C., 2 Months
[9] = Cold (5° C.) 2° to 8° C., 3 months
[10] = Cold (5° C.) 2° to 8° C., 6 Months
[11] = Cold (5° C.) 2° to 8° C., 6 Months, listed as stable amorphous atrovastatin calcium

Substance: hemi-calcium salt of (3R, 5R) 7-[3-phenyl-4-phenylcarbamoyl-2-(4-fluorophenyl)-5-isopropyl-pyrrol-1-yl]-3,5-dihydroxyheptanoic acid [Atorvastatin Calcium Amorphous]
- single individual unknown impurities, area percentage of HPLC (20 to 8° C. under cold (5° C.) condition for 6 months): < 0.1%
- Related Substance by HPLC: 3-O-Methyl Atorvastatin Calcium [1]: 0.02%
- Related Substance by HPLC: Atorvastatin Desflouro Calcium [1]: 0.05%
- Related Substance by HPLC: Atorvastatin Diasteroisomer [1]: 0.08%
- Related Substance by HPLC: Atorvastatin Lactone [1]: 0.07%
- Related Substance by HPLC: 3-O-Methyl Atorvastatin Calcium [2]: 0.03
- Related Substance by HPLC: Atorvastatin Desflouro Calcium [2]: 0.06%
- Related Substance by HPLC: Atorvastatin Diasteroisomer [2]: 0.10%
- Related Substance by HPLC: Atorvastatin Lactone [2]: 0.05%
- Related Substance by HPLC: 3-O-Methyl Atorvastatin Calcium [3]: 0.03%
- Related Substance by HPLC: Atorvastatin Desflouro Calcium [3]: 0.06%
- Related Substance by HPLC: Atorvastatin Diasteroisomer [3]: 0.12%
- Related Substance by HPLC: Atorvastatin Lactone [3]: 0.04%
- Related Substance by HPLC: 3-O-Methyl Atorvastatin Calcium [4]: 0.03%
- Related Substance by HPLC: Atorvastatin Desflouro Calcium [4]: 0.06%
- Related Substance by HPLC: Atorvastatin Diasteroisomer [4]: 0.11%
- Related Substance by HPLC: Atorvastatin Lactone [4]: 0.05%
- Related Substance by HPLC: Atorvastatin diol methyl ester [4]: less than 0.1%
- Related Substance by HPLC: Atorvastatin protected diol [4]: less than 0.1%
- Related Substance by HPLC: t-butyl diol ester [4]: less than 0.1%
- Related Substance by HPLC: 3-O-Methyl Atorvastatin Calcium [5]: less than 0.1%
- Related Substance by HPLC: Atorvastatin Desflouro Calcium [5]: less than 0.1%
- Related Substance by HPLC: Atorvastatin Diasteroisomer [5]: less than 0.1%
- Related Substance by HPLC: Atorvastatin Lactone [5]: less than 0.1%
- single individual known impurities, area percentage of HPLC [6]: less than 0.15%
- single individual unknown impurities, area percentage of HPLC [6]: less than 0.1%
- Related Substance by HPLC: 3-O-Methyl Atorvastatin Calcium [7]: 0.03%
- Related Substance by HPLC: Atorvastatin Desflouro Calcium [7]: 0.06%
- Related Substance by HPLC: Atorvastatin Diasteroisomer [7]: 0.08%
- Related Substance by HPLC: Atorvastatin Lactone [7]: 0.08%
- Related Substance by HPLC: 3-O-Methyl Atorvastatin Calcium [8]: 0.03%
- Related Substance by HPLC: Atorvastatin Desflouro Calcium [8]: 0.07%
- Related Substance by HPLC: Atorvastatin Diasteroisomer [8]: 0.09%
- Related Substance by HPLC: Atorvastatin Lactone [8]: 0.04%
- Related Substance by HPLC: 3-O-Methyl Atorvastatin Calcium [9]: 0.03%
- Related Substance by HPLC: Atorvastatin Desflouro Calcium [9]: 0.07%
- Related Substance by HPLC: Atorvastatin Diasteroisomer [9]: 0.10%
- Related Substance by HPLC: Atorvastatin Lactone [9]: 0.05%
- Related Substance by HPLC: 3-O-Methyl Atorvastatin Calcium [10]: 0.03%
- Related Substance by HPLC: Atorvastatin Desflouro Calcium [10]: 0.05%
- Related Substance by HPLC: Atorvastatin Diasteroisomer [10]: 0.08%
- Related Substance by HPLC: Atorvastatin Lactone [10]: 0.06%
- Related Substance by HPLC: Atorvastatin diol methyl ester [10]: less than 0.1%
- Related Substance by HPLC: Atorvastatin protected diol [10]: less than 0.1%
- Related Substance by HPLC: t-butyl diol ester [10]: less than 0.1%
- Related Substance by HPLC: 3-O-Methyl Atorvastatin Calcium [11]: less than 0.1%
- Related Substance by HPLC: Atorvastatin Desflouro Calcium [11]: less than 0.1%
- Related Substance by HPLC: Atorvastatin Diasteroisomer [11]: less than 0.1%
- Related Substance by HPLC: Atorvastatin Lactone [11]: less than 0.1%
- Related Substance by HPLC: 3-O-Methyl Atorvastatin Calcium (Initial): 0.02%
- Related Substance by HPLC: Atorvastatin Desflouro Calcium (Initial): 0.06%
- Related Substance by HPLC: Atorvastatin Diasteroisomer (Initial): 0.07%
- Related Substance by HPLC: Atorvastatin Lactone (Initial): 0.09%
- Related Substance by HPLC: Atorvastatin protected diol (Initial): 0.01%
- single individual known impurities, area percentage of HPLC (cold (5° C.) condition for 6 months): less than 0.15%
